Source: ChEMBL document CHEMBL1201862, “PubChem BioAssay data set” (2004)
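Interpolation was linear, between the two tested concentrations surrounding the appropriate level; five concentrations were tested over 48 hours in 96-well plates. GI50: concentration for 50% inhibition of growth.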 Active and inactive are the calls of the source. Cut-off read from the data, not from the text of the source: active = GI50 up to about 1.1 µM and inactive = higher.

Experiments:
Assay in all cases: NCI anticancer screen, dose series, 48 h
UACC-62 = tested on: UACC-62
PC-3 = tested on: PC-3
HOP-62 = tested on: HOP-62
SF-268 = tested on: SF-268
MDA-MB-435 = tested on: MDA-MB-435
U-251 = tested on: U-251
SNB-75 = tested on: SNB-75
NCI-H522 = tested on: NCI-H522
SK-MEL-5 = tested on: SK-MEL-5
RPMI-8226 = tested on: RPMI-8226
SW-620 = tested on: SW-620
SK-MEL-2 = tested on: SK-MEL-2
OVCAR-3 = tested on: OVCAR-3
ACHN = tested on: ACHN
T47D = tested on: T47D
IGROV-1 = tested on: IGROV-1
DU-145 = tested on: DU-145
A549 = tested on: A549
MDA-MB-231 = tested on: MDA-MB-231
SK-OV-3 = tested on: SK-OV-3

Measured: GI50

NC(CC1=CS(=O)(=O)c2ccc(Cl)cc21)C(=O)O (configuration not stated)
inactive: UACC-62 > 100 µM | PC-3 > 100 µM | HOP-62 > 100 µM | SF-268 > 100 µM | MDA-MB-435 > 100 µM | U-251 > 100 µM | SNB-75 20.6 µM | NCI-H522 > 100 µM | SK-MEL-5 > 100 µM | RPMI-8226 > 100 µM | SW-620 > 100 µM | SK-MEL-2 > 100 µM | OVCAR-3 > 100 µM | ACHN > 100 µM | T47D > 100 µM | IGROV-1 > 100 µM | DU-145 > 100 µM | A549 > 100 µM | MDA-MB-231 > 100 µM | SK-OV-3 > 100 µM

Nc1ccc(C(=O)O)cc1.Nc1nc(N)c2nc[nH]c2n1
inactive: UACC-62 11.1 µM | PC-3 22.3 µM | HOP-62 20.7 µM | SF-268 60.8 µM | MDA-MB-435 12.2 µM | U-251 43.9 µM | SNB-75 2.44 µM | NCI-H522 17.8 µM | SK-MEL-5 21.5 µM | RPMI-8226 12.1 µM | SW-620 25.7 µM | SK-MEL-2 22.9 µM | OVCAR-3 19.1 µM | ACHN 17 µM | T47D 3.27 µM | IGROV-1 29.9 µM | DU-145 13.8 µM | A549 13.3 µM | MDA-MB-231 45.4 µM | SK-OV-3 34.8 µM

N#Cc1nc(-c2cccc(-c3nc(C#N)c(N)o3)n2)oc1N
inactive: UACC-62 > 100 µM | PC-3 > 100 µM | HOP-62 > 100 µM | SF-268 > 100 µM | MDA-MB-435 > 100 µM | U-251 > 100 µM | SNB-75 > 100 µM | NCI-H522 > 100 µM | SK-MEL-5 > 100 µM | RPMI-8226 > 100 µM | SW-620 > 100 µM | SK-MEL-2 > 100 µM | OVCAR-3 > 100 µM | ACHN > 100 µM | T47D > 100 µM | IGROV-1 > 100 µM | DU-145 > 100 µM | A549 > 100 µM | MDA-MB-231 > 100 µM | SK-OV-3 > 100 µM

Cc1ccc(S(=O)(=O)OC2=C/C(=N\c3onc(C)c3C)c3ccccc3C2=O)cc1
inactive: UACC-62 20.6 µM | PC-3 20.6 µM | HOP-62 23.6 µM | SF-268 23.7 µM | MDA-MB-435 16.1 µM | U-251 4 µM | SNB-75 45.7 µM | NCI-H522 7.46 µM | SK-MEL-5 18.3 µM | RPMI-8226 7.96 µM | SW-620 28.2 µM | SK-MEL-2 12.9 µM | OVCAR-3 16.5 µM | ACHN 26.3 µM | T47D 24.2 µM | IGROV-1 > 10 µM | DU-145 51.6 µM | A549 51.1 µM | MDA-MB-231 19.7 µM | SK-OV-3 28.7 µM

N#Cc1nc(-c2cccs2)oc1N
inactive: UACC-62 > 100 µM | PC-3 > 100 µM | HOP-62 > 100 µM | SF-268 > 100 µM | MDA-MB-435 > 100 µM | U-251 > 100 µM | SNB-75 92.3 µM | NCI-H522 18.5 µM | SK-MEL-5 > 100 µM | RPMI-8226 > 100 µM | SW-620 > 100 µM | SK-MEL-2 > 100 µM | OVCAR-3 > 100 µM | ACHN > 100 µM | T47D > 100 µM | IGROV-1 > 100 µM | DU-145 > 100 µM | A549 > 100 µM | MDA-MB-231 51.3 µM | SK-OV-3 > 100 µM

CC(C)(C)[Si](C)(C)OCC1C=CC(n2cnc3c(N)ncnc32)O1 (configuration not stated)
inactive: UACC-62 44.5 µM | PC-3 39.8 µM | HOP-62 69.8 µM | SF-268 83.2 µM | MDA-MB-435 22.3 µM | U-251 32.1 µM | SNB-75 16.6 µM | NCI-H522 33.2 µM | SK-MEL-5 15.4 µM | RPMI-8226 16.7 µM | SW-620 21 µM | SK-MEL-2 39.4 µM | OVCAR-3 24.1 µM | ACHN > 100 µM | T47D 20.6 µM | IGROV-1 46.6 µM | DU-145 64.3 µM | A549 > 100 µM | MDA-MB-231 44.2 µM | SK-OV-3 81.1 µM

CN1C2CCC1CN(CCOC(c1ccc(F)cc1)c1ccc(F)cc1)C2
inactive: PC-3 28.6 µM | HOP-62 21.4 µM | SF-268 46.7 µM | MDA-MB-435 23.4 µM | U-251 26.1 µM | SNB-75 26.5 µM | NCI-H522 43.6 µM | SK-MEL-5 14.4 µM | RPMI-8226 23.9 µM | SW-620 23.6 µM | SK-MEL-2 23.8 µM | OVCAR-3 47.1 µM | ACHN 40.6 µM | T47D 24.3 µM | IGROV-1 36.1 µM | DU-145 57.5 µM | A549 65 µM | MDA-MB-231 22.9 µM | SK-OV-3 42.3 µM

O=c1c2cc(I)ccc2nc(SCc2nncs2)n1Cc1ccccc1
inactive: UACC-62 13.6 µM | PC-3 13.8 µM | HOP-62 20.3 µM | SF-268 14.1 µM | MDA-MB-435 19.2 µM | U-251 16.9 µM | SNB-75 19.1 µM | NCI-H522 4.78 µM | SK-MEL-5 6.71 µM | RPMI-8226 6.76 µM | SW-620 > 100 µM | SK-MEL-2 16.1 µM | OVCAR-3 12.3 µM | ACHN 9.33 µM | T47D 8.93 µM | IGROV-1 3.89 µM | DU-145 23.1 µM | A549 22.9 µM | MDA-MB-231 16.8 µM | SK-OV-3 43.7 µM

O=C(O)C1C2C=CC(O2)C1C(=O)Nc1ncccn1 (configuration not stated)
inactive: UACC-62 > 100 µM | PC-3 > 100 µM | HOP-62 > 100 µM | SF-268 > 100 µM | MDA-MB-435 > 100 µM | U-251 > 100 µM | SNB-75 > 100 µM | NCI-H522 > 100 µM | SK-MEL-5 > 100 µM | RPMI-8226 > 100 µM | SW-620 > 100 µM | SK-MEL-2 > 100 µM | OVCAR-3 > 100 µM | ACHN > 100 µM | T47D > 100 µM | IGROV-1 > 100 µM | DU-145 > 100 µM | A549 > 100 µM | MDA-MB-231 > 100 µM | SK-OV-3 > 100 µM

O=S1(=O)c2ccccc2Oc2ccc(C(/C=N/O)=N/O)cc21
inactive: UACC-62 71.3 µM | PC-3 32.5 µM | HOP-62 65.5 µM | SF-268 30.1 µM | MDA-MB-435 17.5 µM | U-251 41.2 µM | SNB-75 45.3 µM | NCI-H522 12.1 µM | RPMI-8226 19.1 µM | SK-MEL-2 25.7 µM | OVCAR-3 12.3 µM | ACHN 38.6 µM | T47D 9.08 µM | IGROV-1 29.2 µM | DU-145 11.2 µM | A549 65.5 µM | MDA-MB-231 45.5 µM | SK-OV-3 39.6 µM
